The NIST ThermoML archive (doi:10.1021/acs.jced.9b00375)
± gives the expanded uncertainty stated by the source. One block for each compound: values may come before it.

Assays:
[1] = wn = mass fraction of the nth substance listed; details: 298.15 K, 101.3 kPa, Liquid, Vibrating tube method
[2] = 298.15 K; 101.3 kPa; Liquid; Vibrating tube method

Structure (SMILES): CCCCCCCC [octane]
- mass density [2]: 698.7 ± 16 kg/m3

Structure (SMILES): CCCCCCC [heptane]
- mass density [2]: 679 ± 16 kg/m3

Structure (SMILES): CCO [ethanol]
- mass density [2]: 785.7 ± 16 kg/m3

Structure (SMILES): CCCCCC [hexane]
- mass density [2]: 668 ± 16 kg/m3

Structure (SMILES): CO [methanol]
- mass density [2]: 786.7 ± 16 kg/m3

Continued, values first:

- mass density ([1]; w2 = 0.9491): 625.1 ± 16 kg/m3
Structure (SMILES): NCCO.O=CO [2-hydroxyethylammonium formate] + CCCCC

- mass density ([1]; w2 = 0.0045): 1183 ± 16 kg/m3
- mass density ([1]; w2 = 0.9989): 680 ± 16 kg/m3
Structure (SMILES): NCCO.O=CO [2-hydroxyethylammonium formate] + CCCCCCC

- mass density ([1]; w2 = 0.0035): 1192.6 ± 16 kg/m3
- mass density ([1]; w2 = 0.9955): 699.5 ± 16 kg/m3
- mass density ([1]; w2 = 0.9971): 699.7 ± 16 kg/m3
Structure (SMILES): NCCO.O=CO [2-hydroxyethylammonium formate] + CCCCCCCC

- mass density ([1]; w2 = 0.0028): 1182.7 ± 16 kg/m3
- mass density ([1]; w2 = 0.0063): 1194.1 ± 16 kg/m3
- mass density ([1]; w2 = 0.997): 655.6 ± 16 kg/m3
- mass density ([1]; w2 = 0.9982): 663.6 ± 16 kg/m3
Structure (SMILES): NCCO.O=CO [2-hydroxyethylammonium formate] + CCCCCC

- mass density [2]: 621.3 ± 16 kg/m3
Structure (SMILES): CCCCC [pentane]

- mass density [2]: 1215 ± 16 kg/m3
Structure (SMILES): NCCO.O=CO [2-hydroxyethylammonium formate]
